Our source for the IC50 values is US8575197B2, “Pyrolinone derivative and pharmaceutical composition comprising the same” (Shionogi & Co., Ltd., priority 2008, dated 2013).

As usually defined, the IC50 is the midpoint of a concentration-inhibition curve.

The assay deals with human P2X3 receptor (Homo sapiens (Human), UniProt P56373). Briefly: P2X3 receptor inhibition, ATP-evoked Fluo-3 calcium fluorescence (FDSS 3000). Format: cell-based. To be noted: C6BU-1 cell transfected with human P2X3 receptor gene; ATP-evoked Fluo-3 fluorescence. In a few lines: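 C6BU-1 cells stably transfected with human P2X3, loaded with 4 μM Fluo-3-AM for 1 h at 37 °C in HEPES buffer pH 7.5 with probenecid. Compound added 5 min before 40 nM ATP solution; fluorescence followed 3 min. IC50 from ratio of peak post-ATP to baseline fluorescence.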
Sequence of human P2X3 receptor (P56373 whole entry): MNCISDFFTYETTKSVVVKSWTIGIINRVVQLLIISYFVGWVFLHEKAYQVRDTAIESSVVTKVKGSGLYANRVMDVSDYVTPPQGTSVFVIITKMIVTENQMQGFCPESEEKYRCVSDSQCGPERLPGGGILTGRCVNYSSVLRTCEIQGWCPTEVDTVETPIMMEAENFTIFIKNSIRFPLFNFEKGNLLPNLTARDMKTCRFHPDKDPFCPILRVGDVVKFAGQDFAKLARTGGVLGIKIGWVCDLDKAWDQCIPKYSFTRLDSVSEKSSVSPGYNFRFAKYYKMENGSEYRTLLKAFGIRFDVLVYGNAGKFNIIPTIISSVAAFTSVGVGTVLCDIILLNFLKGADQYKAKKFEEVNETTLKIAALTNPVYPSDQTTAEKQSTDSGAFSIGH
For the compound `COCc1ccccc1[C@@H]1C(C(=O)C(C)C)=C(O)C(=O)N1c1ccc(-c2ccsc2)cc1` [Compound I-255], the IC50 was 8 nM.
The value for `Cc1cc(-c2ccc(N3C(=O)C(O)=C(C(=O)C(C)C)C3c3ccccc3OCCO)cc2)cs1` (centres unmarked) [Compound I-256] was 23 nM; that for `COc1ccccc1C1C(C(=O)C(C)C)=C(O)C(=O)N1c1ccc(-c2csc(C)c2)cc1` (centres unmarked) [Compound I-257] was 37 nM.
Then `Cc1ccc(-c2ccc(N3C(=O)C(O)=C(C(=O)C(C)C)C3c3ccccc3OCCO)cc2)s1` (centres unmarked) [Compound I-258], with 24 nM.
The value for `COc1ccccc1C1C(C(=O)C(C)C)=C(O)C(=O)N1c1ccc(-c2ccc(C)s2)cc1` (centres unmarked) [Compound I-259] was 30 nM; that for `COCCOc1ccccc1C1C(C(=O)C(C)C)=C(O)C(=O)N1c1ccc(-c2csc(C)c2)cc1` (centres unmarked) [Compound I-261] was 19 nM.
In the case of `COCOc1ccccc1C1C(C(=O)C(C)C)=C(O)C(=O)N1c1ccc(-c2csc(C)c2)cc1` (centres unmarked) [Compound I-262], the concentration for half-maximal inhibition (IC50) was 16 nM.
As to `COCCOc1ccccc1C1C(C(=O)C(C)C)=C(O)C(=O)N1c1ccc(-c2ccc(C)s2)cc1` (centres unmarked) [Compound I-263], the IC50 turned out to be 8 nM.
Then `COCOc1ccccc1C1C(C(=O)C(C)C)=C(O)C(=O)N1c1ccc(-c2ccc(C)s2)cc1` (centres unmarked) [Compound I-264], with 14 nM; and `COCc1ccccc1C1C(C(=O)C(C)C)=C(O)C(=O)N1c1ccc(-c2csc(C)c2)cc1` (centres unmarked) [Compound I-265], with 28 nM; and `COCc1ccccc1C1C(C(=O)C(C)C)=C(O)C(=O)N1c1ccc(-c2ccc(C)s2)cc1` (centres unmarked) [Compound I-266], with 25 nM.
The value for `COCCOc1ncccc1C1C(C(=O)C(C)C)=C(O)C(=O)N1c1ccc(-c2ccc(C)s2)cc1` (centres unmarked) [Compound I-267] was 14 nM; that for `COCCOc1ncccc1C1C(C(=O)C(C)C)=C(O)C(=O)N1c1ccc(-c2csc(C)c2)cc1` (centres unmarked) [Compound I-268] was 32 nM.
Then `COc1ccccc1C1C(C(=O)C(C)C)=C(O)C(=O)N1c1ccc2sccc2c1` (centres unmarked) [Compound I-269], with 347 nM.
Turning to `COCCOc1ccccc1C1C(C(=O)C(C)C)=C(O)C(=O)N1c1ccc(-c2nc(C)no2)cc1` (centres unmarked) [Compound I-271], the IC50 is 542 nM.
The value for `COCCOc1ccccc1C1C(C(=O)CC(C)C)=C(O)C(=O)N1c1ccc(-c2nc(C)no2)cc1` (centres unmarked) [Compound I-273] was 491 nM; that for `COCCOc1ccccc1C1C(C(=O)C(C)C)=C(O)C(=O)N1c1ccc(-c2noc(C)n2)cc1` (centres unmarked) [Compound I-275] was 172 nM.
For the compound `COCCOc1ccccc1C1C(C(=O)CC(C)C)=C(O)C(=O)N1c1ccc(-c2noc(C)n2)cc1` (centres unmarked) [Compound I-276], the IC50 was found to be 117 nM.
Then `Cc1nc(-c2ccc(N3C(=O)C(O)=C(C(=O)C(C)C)C3c3ccccc3OCCO)cc2)no1` (centres unmarked) [Compound I-277], with 342 nM.
The value for `Cc1nc(-c2ccc(N3C(=O)C(O)=C(C(=O)CC(C)C)C3c3ccccc3OCCO)cc2)no1` (centres unmarked) [Compound I-278] was 366 nM; that for `COc1ccccc1[C@@H]1C(C(=O)CC(C)C)=C(O)C(=O)N1c1ccc(-c2ccsc2)cc1` [Compound I-279] was 16 nM; that for `COc1ccccc1[C@H]1C(C(=O)CC(C)C)=C(O)C(=O)N1c1ccc(-c2ccsc2)cc1` [Compound I-280] was 477 nM.
Then `COCc1ccccc1C1C(C(=O)C(C)C)=C(O)C(=O)N1c1ccc(I)cc1` (centres unmarked) [Compound I-281], with 637 nM; and `COCc1ccccc1C1C(C(=O)C(C)C)=C(O)C(=O)N1c1ccc(-c2ccccc2)cc1` (centres unmarked) [Compound I-282], with 472 nM; and `COCc1ccccc1C1C(C(=O)C(C)C)=C(O)C(=O)N1c1ccc(-c2ccccc2)s1` (centres unmarked) [Compound I-283], with 144 nM.
Take `COc1cccc(C2C(C(=O)C(C)C)=C(O)C(=O)N2c2ccc(-c3ccsc3)cc2)c1` (centres unmarked) [Compound I-284]: the IC50 was found to be 300 nM.
For `COc1ccc(C2C(C(=O)C(C)C)=C(O)C(=O)N2c2ccc(-c3ccsc3)cc2)cc1` (centres unmarked) [Compound I-285], the IC50 was 648 nM.
Then `COCCOc1cccc(C2C(C(=O)C(C)C)=C(O)C(=O)N2c2ccc(-c3ccsc3)cc2)c1` (centres unmarked) [Compound I-286], with 669 nM.
The value for `COc1ccc(C(=O)C2=C(O)C(=O)N(c3ccc(-c4ccsc4)cc3)C2C2COC(C)(C)OC2)cn1` (centres unmarked) [Compound I-288] was 36 nM; that for `CC(C)CC(=O)C1=C(O)C(=O)N(c2ccc(-c3ccsc3)cc2)C1c1ccccc1OC(F)F` (centres unmarked) [Compound I-290] was 51 nM; that for `COc1ncccc1C1C(C(=O)CC(C)C)=C(O)C(=O)N1c1ccc(-c2ccsc2)cc1` (centres unmarked) [Compound I-291] was 130 nM.
Then `CC(C)CC(=O)C1=C(O)C(=O)N(c2ccc(-c3ccsc3)cc2)C1c1ccccc1C(F)(F)F` (centres unmarked) [Compound I-292], with 127 nM.
As to `CC(C)CC(=O)C1=C(O)C(=O)N(c2ccc(-c3ccsc3)cc2)C1c1ccccc1OC(C)C` (centres unmarked) [Compound I-293], the IC50 is 12 nM.
The value for `CC(C)C(=O)C1=C(O)C(=O)N(c2ccc(-c3ccon3)cc2)C1c1ccccc1OC(F)(F)F` (centres unmarked) [Compound I-297] was 220 nM.
Then `COCCOc1ccccc1C1C(C(=O)C(C)C)=C(O)C(=O)N1c1ccc(-c2ccon2)cc1` (centres unmarked) [Compound I-298], with 269 nM; and `CC(C)Oc1ccccc1C1C(C(=O)C(C)C)=C(O)C(=O)N1c1ccc(-c2ccsc2)cc1` (centres unmarked) [Compound I-299], with 8 nM.
As to `CC(C)C(=O)C1=C(O)C(=O)N(c2ccc(-c3ccsc3)cc2)C1c1ccccc1C(F)(F)F` (centres unmarked) [Compound I-300], the IC50 stood at 114 nM.
Then `CC(C)C(=O)C1=C(O)C(=O)N(c2ccc(-c3ccsc3)cc2)C1c1ccccc1OC(F)F` (centres unmarked) [Compound I-301], with 18 nM.
The value for `CC(C)C(=O)C1=C(O)C(=O)N(c2ccc(-c3ccsc3)cc2)C1c1ccccc1OC(F)(F)F` (centres unmarked) [Compound I-302] was 34 nM.
Then `COCc1ccccc1C1C(C(=O)CC(C)C)=C(O)C(=O)N1c1ccc(-c2ccc(C)s2)cc1` (centres unmarked) [Compound I-303], with 31 nM.
Take `COCCOc1ccccc1C1C(C(=O)CC(C)C)=C(O)C(=O)N1c1ccc(-c2ccc(C)s2)cc1` (centres unmarked) [Compound I-304]: the IC50 is 21 nM.
The value for `COCOc1ccccc1C1C(C(=O)CC(C)C)=C(O)C(=O)N1c1ccc(-c2ccc(C)s2)cc1` (centres unmarked) [Compound I-305] was 20 nM.
Then `CC(C)CC(=O)C1=C(O)C(=O)N(c2ccc(-c3ccon3)cc2)C1c1ccccc1OC(C)C` (centres unmarked) [Compound I-306], with 54 nM; and `CC(C)CC(=O)C1=C(O)C(=O)N(c2ccc(-c3ccon3)cc2)C1c1ccccc1OC(F)F` (centres unmarked) [Compound I-307], with 158 nM; and `CC(C)CC(=O)C1=C(O)C(=O)N(c2ccc(-c3ccon3)cc2)C1c1ccccc1OC(F)(F)F` (centres unmarked) [Compound I-308], with 193 nM.
The value for `COCCOc1ccccc1C1C(C(=O)CC(C)C)=C(O)C(=O)N1c1ccc(-c2ccon2)cc1` (centres unmarked) [Compound I-309] was 182 nM; that for `COCc1ccccc1C1C(C(=O)C(C)C)=C(O)C(=O)N1c1ccc(-c2noc(C)n2)cc1` (centres unmarked) [Compound I-310] was 337 nM; that for `COCOc1ccccc1C1C(C(=O)C(C)C)=C(O)C(=O)N1c1ccc(-c2noc(C)n2)cc1` (centres unmarked) [Compound I-311] was 121 nM.
With `Cc1nc(-c2ccc(N3C(=O)C(O)=C(C(=O)C(C)C)C3c3ccccc3OC(C)C)cc2)no1` (centres unmarked) [Compound I-312], the IC50 was found to be 54 nM.
As to `Cc1nc(-c2ccc(N3C(=O)C(O)=C(C(=O)C(C)C)C3c3ccccc3OC(F)F)cc2)no1` (centres unmarked) [Compound I-313], the IC50 worked out at 320 nM.
The value for `Cc1nc(-c2ccc(N3C(=O)C(O)=C(C(=O)C(C)C)C3c3ccccc3OC(F)(F)F)cc2)no1` (centres unmarked) [Compound I-314] was 329 nM; that for `COCc1ccccc1C1C(C(=O)CC(C)C)=C(O)C(=O)N1c1ccc(-c2noc(C)n2)cc1` (centres unmarked) [Compound I-315] was 252 nM.
The value for `COCOc1ccccc1C1C(C(=O)CC(C)C)=C(O)C(=O)N1c1ccc(-c2noc(C)n2)cc1` (centres unmarked) [Compound I-316] was 130 nM; that for `Cc1nc(-c2ccc(N3C(=O)C(O)=C(C(=O)CC(C)C)C3c3ccccc3OC(C)C)cc2)no1` (centres unmarked) [Compound I-317] was 73 nM; that for `Cc1nc(-c2ccc(N3C(=O)C(O)=C(C(=O)CC(C)C)C3c3ccccc3OC(F)F)cc2)no1` (centres unmarked) [Compound I-318] was 328 nM.
Then `Cc1nc(-c2ccc(N3C(=O)C(O)=C(C(=O)CC(C)C)C3c3ccccc3OC(F)(F)F)cc2)no1` (centres unmarked) [Compound I-319], with 222 nM; and `COc1ncccc1C1C(C(=O)C(C)C)=C(O)C(=O)N1c1ccc(-c2csc(C)c2)cc1` (centres unmarked) [Compound I-320], with 274 nM.
Take `Cc1cc(-c2ccc(N3C(=O)C(O)=C(C(=O)C(C)C)C3c3ccccc3OC(F)F)cc2)cs1` (centres unmarked) [Compound I-321]: the IC50 came out at 70 nM.
For the compound `Cc1cc(-c2ccc(N3C(=O)C(O)=C(C(=O)C(C)C)C3c3ccccc3OC(F)(F)F)cc2)cs1` (centres unmarked) [Compound I-322], the IC50 is 102 nM.
The value for `CC(C)CC(=O)C1=C(O)C(=O)N(c2ccc(-c3ccon3)cc2)C1c1ccccc1OCCO` (centres unmarked) [Compound I-323] was 310 nM; that for `COCc1ncccc1C1C(C(=O)CC(C)C)=C(O)C(=O)N1c1ccc(-c2ccsc2)cc1` (centres unmarked) [Compound I-324] was 109 nM.
The value for `COc1cc(F)ccc1C1C(C(=O)C(C)C)=C(O)C(=O)N1c1ccc(-c2ccsc2)cc1` (centres unmarked) [Compound I-325] was 18 nM; that for `COc1cc(F)ccc1C1C(C(=O)CC(C)C)=C(O)C(=O)N1c1ccc(-c2ccsc2)cc1` (centres unmarked) [Compound I-326] was 27 nM; that for `COc1ccccc1C1C(C(=O)CC(C)C)=C(O)C(=O)N1c1ccc(-c2ccc(C)s2)cc1` (centres unmarked) [Compound I-327] was 93 nM.
The value for `Cc1ccc(-c2ccc(N3C(=O)C(O)=C(C(=O)CC(C)C)C3c3ccccc3OCCO)cc2)s1` (centres unmarked) [Compound I-328] was 65 nM.
